Measurements from patent publication US10736965B2, “Risperidone biodegradable implant” (The Trustees of the University of Pennsylvania, priority 2004, dated 2020).
≈ marks a conversion by molar mass, not a printed value. Read-outs that look alike come from different tables or passages of the source. One block for each molecule: values may come before it.

Legend:
[1] = In vitro drug release assay from 50:50 PLGA pellets, fit to equation (4); format: physicochemical; conditions: for k (degradation reaction rate): fit of FIG. 10 data to equation (4), 50:50 PLGA, 20% drug load; for Onset of drug release (induction time): 50:50 PLGA pellets, PBS 37° C.; for k, fit parameter: FIG. 11 legend
Method: 400 mg of 50:50 PLGA and 100 mg of drug were solvent cast to obtain a 20% by mass drug-load. Polymer and drug were dissolved in 45 milliliters (mL) acetone (Fisher Scientific, Inc.) and vortexed, then poured into an evaporation dish and placed in a vacuum oven at 40° C. under vacuum (3 inches Hg) with trace airflow. After seven days, dishes were removed from the oven. Evaporation residue was a thin film mixture of polymer and drug with homogenous appearance. The film was carefully weighed to confirm complete removal of solvent and pressed into four uniform disk-shaped pellets with 1 mm thickness and […], using a Teflon®-coated pellet press set at 25 (kilo-pounds) klb and 60° C. Pellets were carefully weighed and measured to determine densities. Negative control pellets with a 0% drug load were fabricated in the same manner, using 500 mg polymer and no drug.
Assays were performed in triplicate using three of each set of four uniform pellets. Each pellet was added to an amber-glass, capped jar (Wheaton, Inc.) containing 500 mL of a PBS solution and subjected to moderate shaking in the dark, at 37° C. 1-mL aliquots of were analyzed by UV Spectroscopy at fixed time intervals and. Positive control jars contained PBS and 10 mg of drug, the expected maximum release for a 20% drug-loaded pellet with a mass of 50 mg, and were also used to determine stability of each drug in saline solution over the course of the experiment.
The degradation reaction is likely to be a […] reaction between the polymer and water, and is thus proportional to the local concentration of both species. However, since the polymer comprises the majority of the pellet, its concentration is fixed everywhere. Thus, the degradation reaction is proportional to the local concentration of water (a function of the diffusivity) times a constant. Defining the diffusion coefficient of water into the polymer pellet as D, the diffusion/reaction equation for water is written as (1): […]
The model described by Equation (4) fit well the drug release data shown in FIG. 10 for all six drugs tested, with values of D and k as listed in Table 2 (the curves for haloperidol and aspirin are depicted in FIG. 11). This is notable because the drugs tested are diverse; e.g. haloperidol and aspirin are very different. The deviations seen at late time points arose from the finite size of the pellets.

Drug solubility in water = format: physicochemical; conditions: measured after 14 days, distilled water, 21° C.; for solubility at 14 days: thermodynamic from solid
Excerpt: 1-mL aliquots were removed at fixed time intervals and analyzed by UV Spectroscopy to determine maximum saturation concentration.

in vivo = conditions: rabbit
Excerpt: The concentration of drug as a function of time is a complex function. The error function can be approximated as erf(x)˜1−e^−7x/4, yielding equation 10 for the drug concentration. a1 is a constant equal to the total drug content of the implant, variable a2 is a constant equal to the metabolic rate, variable a3 reflects diffusion of drug from the implant and variable a4 reflects polymer degradation and influences total release interval.

[2] = format: physicochemical
Method: To evaluate the long-term stability of risperidone in physiological solution, 10 mg Risperidone was dissolved in 100 μl of acetonitrile for subsequent dissolution in 1,000 ml of PBS (0.9% NaCl, 0.01 M NaOH, 0.01 M NaH2PO4, pH 7.0) to yield a final solution of 10,000 nanograms (ng)/ml. The solution was shaken at 40 revolutions per minute in a light-safe amber bottle at 37° C. Drug concentration of a 1-ml sample was measured three times per week by UV spectroscopy (Amersham Biosciences, Buckinghamshire, UK). […] Studies were replicated using UV spectrophotometry and HPLC (FIG. 5).

[3] = first 77 days

k (degradation reaction rate) [1]: 0.06 day⁻¹
Water solubility (Drug solubility in water): 4990 µg/mL
Compound: CC(=O)Oc1ccccc1C(=O)O [Aspirin, 2-acetyloxybenzoic acid]

k (degradation reaction rate) [1]: 0.33 day⁻¹
solubility at 14 days (Drug solubility in water): 500 µg/mL (≈ 1440 µM)
Compound: CC12CCC(=O)C=C1CCC1C2C(O)CC2(C)C(C(=O)CO)CCC12 (stereo not drawn) [Corticosterone, 11-hydroxy-17-(2-hydroxyacetyl)-10,13-dimethyl-1,2,6,7,8,9,10,11,12,13,14,15,16,17-tetradecahydrocyclopenta[a]phenanthren-3-one]

k (degradation reaction rate) [1]: 0.26 day⁻¹
Compound: NS(=O)(=O)c1cc2c(cc1Cl)NCNS2(=O)=O [HCTZ, 9-chloro-5,5-dioxo-5λ6-thia-2,4-diazabicyclo[4.4.0]deca-6,8,10-triene-8-sulfonamide]

Coefficient τ (in vivo): ≈ 0.027
half-life (in vivo): ~2.17 h
Onset of drug release (induction time) [1]: exhibited an induction time
k (degradation reaction rate) [1]: 0.07 day⁻¹
solubility at 14 days (Drug solubility in water): 130 µg/mL (≈ 346 µM)
Compound: O=C(CCCN1CCC(O)(c2ccc(Cl)cc2)CC1)c1ccc(F)cc1 [Haloperidol, 4-[4-(4-chlorophenyl)-4-hydroxy-1-piperidyl]-1-(4-fluorophenyl)-butan-1-one]
k, fit parameter [1]: approximately 0.1 1/days

k (degradation reaction rate) [1]: 0.16 day⁻¹
solubility at 14 days (Drug solubility in water): 470 µg/mL (≈ 2280 µM)
Compound: CC(C)Cc1ccc(C(C)C(=O)O)cc1 (stereo not drawn) [Ibuprofen, 2-[4-(2-methylpropyl)phenyl]propanoic acid]
k, fit parameter [1]: approximately 0.164 1/days

Compound: Cc1nc2n(c(=O)c1CCN1CCC(c3noc4cc(F)ccc34)CC1)CCCC2 [Risperidone]
Stability in physiological solution [2]: stable
Change in concentration of drug per day ([2]; PBS pH 7.0, 37° C.): 0.004 % per day
Change in concentration of drug ([2]; over 343 days, PBS pH 7.0, 37° C., UV spectroscopy): 1.4%
Daily change in drug mass ([3]; pH 4.4): 0.00%
Daily change in drug mass ([3]; pH 5.4): 0.10%
Daily change in drug mass ([3]; pH 6.4): 0.04%
Daily change in drug mass ([3]; pH 7.4): 0.06%

k (degradation reaction rate) [1]: 0.06 day⁻¹
solubility at 14 days (Drug solubility in water): 140 µg/mL (≈ 316 µM)
Compound: CN1CCN(CCC=C2c3ccccc3Sc3ccc(S(=O)(=O)N(C)C)cc32)CC1 [Thiothixene, N,N-dimethyl-9-[3-(4-methylpiperazin-1-yl)propylidene]thioxanthene-2-sulfonamid]
Onset of drug release (induction time) [1]: released as soon as the experiment begins
